Data as given in patent publication US20260184687A1, “DIHYDROINDENE DERIVATIVES AS MALT1 INHIBITORS” (C4X Discovery Limited, priority 2022, published 2026).

Experiments:
[1] = test system: IL-2 release from stimulated Jurkat cells; experiment: Human IL-2 Release Phenotypic Assay (Assay 3); assay type: cell-based; settings: Jurkat cells (clone E6-1), 200 ng/mL PMA + 300 ng/mL ionomycin, IL-2 by ELISA
Protocol: This assay measured the inhibition by MALT1 inhibitors of the IL-2 release from stimulated Jurkat cells, a human immortalized T lymphocyte cell line. IL-2 production from Jurkat cells is regulated by activation of NFκB signalling, which is in turn regulated by MALT1 protease activity.
Jurkat cells (clone E6-1, ATCC) were cultured in RPMI1640 supplemented with 10% (v/v) FBS and 1% (v/v) penicillin/streptomycin (100× liquid stocks). Cells were seeded in 96-well white tissue culture-treated plates (Perkin Elmer) at 50 000 cells/well and incubated overnight at 37° C., 5% CO2. Test compounds in DMSO at half-log dilutions were added to the cells and incubated for 30 mins. Final DMSO concentration was 0.5%. Cells were then stimulated with 200 ng/mL PMA+300 ng/mL ionomycin and incubated for 48 hours. […] IC50 values were calculated using GraphPad Prism using 4-parameter non-linear regression curve fit.

[2] = biological target: T1, FL hMALT1 enzyme (Homo sapiens, UniProt Q9UDY8); experiment: biochemical;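 further: Cell-free protease assay: enzyme preincubated with compound 30 min at room temperature, then cleavage of fluorogenic Ac-LVSR-AMC substrate (100 µM) tracked by fluorescence (ex 360/em 460 nm)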
T1 sequence (Q9UDY8 1-824): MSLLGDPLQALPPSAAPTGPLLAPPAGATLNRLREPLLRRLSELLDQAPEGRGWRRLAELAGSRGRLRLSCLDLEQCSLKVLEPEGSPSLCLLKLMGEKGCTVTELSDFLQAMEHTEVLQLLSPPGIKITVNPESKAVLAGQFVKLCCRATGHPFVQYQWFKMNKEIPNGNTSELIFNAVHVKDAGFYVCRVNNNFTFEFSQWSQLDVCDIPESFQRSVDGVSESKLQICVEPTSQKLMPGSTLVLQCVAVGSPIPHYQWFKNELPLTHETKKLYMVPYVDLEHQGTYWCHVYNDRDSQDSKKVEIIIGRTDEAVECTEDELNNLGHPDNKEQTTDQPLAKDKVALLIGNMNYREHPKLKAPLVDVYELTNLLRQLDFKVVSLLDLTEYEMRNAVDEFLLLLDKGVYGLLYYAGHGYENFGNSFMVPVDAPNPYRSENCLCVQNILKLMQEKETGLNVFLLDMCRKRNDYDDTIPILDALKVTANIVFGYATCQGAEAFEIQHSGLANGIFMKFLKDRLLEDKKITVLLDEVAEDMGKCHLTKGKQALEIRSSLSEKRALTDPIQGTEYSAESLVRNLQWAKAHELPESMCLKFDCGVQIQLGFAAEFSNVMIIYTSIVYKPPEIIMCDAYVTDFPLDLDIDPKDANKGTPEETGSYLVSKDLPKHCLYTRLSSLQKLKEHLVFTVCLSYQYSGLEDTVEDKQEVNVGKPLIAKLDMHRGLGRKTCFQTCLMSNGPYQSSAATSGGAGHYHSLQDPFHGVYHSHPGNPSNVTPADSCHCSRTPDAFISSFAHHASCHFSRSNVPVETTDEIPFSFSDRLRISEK

SMILES	IC50 ([1]; Homo sapiens, Jurkat, 48 h) [nM]	IC50 [2] [nM]	IC50 ([1]; 48 hours) [nM]
CN(C(=O)C1CN(C(=O)C2CCOC2)C1)[C@@H](c1ccc(NC2Cc3ccc(Cl)c(Cl)c3C2)cn1)C(F)(F)F (single isomer, unassigned) [Example 352]	110	46	–
CN(C(=O)C1CCC(=O)NC1)[C@@H](c1ccc(NC2Cc3ccccc3C2(C)C)cn1)C(F)(F)F (single isomer, unassigned) [Example 106]	–	130	540
CN(C(=O)C1CCNC(=O)C1)[C@@H](c1ccc(NC2Cc3ccccc3C2(C)C)cn1)C(F)(F)F (single isomer, unassigned) [Example 118]	–	49	280
CN(C(=O)N1CCS(=O)(=O)CC1)[C@@H](c1ccc(NC2Cc3ccccc3C2(C)C)cn1)C(F)(F)F (single isomer, unassigned) [Example 142]	1790	200	–
CC(=O)N1CC(C(=O)N(C)[C@@H](c2ccc(NC3Cc4ccc(Cl)c(Cl)c4C3)cn2)C(F)(F)F)C1 (single isomer, unassigned) [Example 377]	130	40	–
CN(C(=O)C1CN(C(=O)C2COC2)C1)[C@@H](c1ccc(NC2Cc3ccc(Cl)c(F)c3C2)cn1)C(F)(F)F (single isomer, unassigned) [Example 371]	220	75	–
CN(C(=O)C12CC(NS(C)(=O)=O)(C1)C2)[C@@H](c1ccc(NC2Cc3ccc(Cl)c(Cl)c3C2)cn1)C(F)(F)F (single isomer, unassigned) [Example 323]	100	14	–
CN(C(=O)C1CCCNC1)[C@@H](c1ccc(NC2Cc3ccccc3C2(C)C)cn1)C(F)(F)F (single isomer, unassigned) [Example 126]	–	120	700
CN1CCC(C(=O)N(C)[C@@H](c2ccc(NC3Cc4ccccc4C3(C)C)nc2)C(F)(F)F)CC1 (single isomer, unassigned) [Example 144]	2630	210	–
CN(C(=O)[C@H]1CCC(=O)NC1)[C@@H](c1ccc(NC2Cc3ccc(Cl)c(C4CC4)c3C2)cn1)C(F)(F)F (single isomer, unassigned) [Example 330]	220	16	–
CN(C(=O)[C@@H]1CNC(=O)C1)[C@@H](c1ccc(NC2Cc3ccc(Cl)c(Cl)c3C2)cn1)C(F)(F)F (single isomer, unassigned) [Example 319]	66	24	–
CN(C(=O)C1CN2CCC1CC2)[C@@H](c1ccc(NC2Cc3ccccc3C2(C)C)cn1)C(F)(F)F (single isomer, unassigned) [Example 141]	–	210	1230
CN(C(=O)C1CNC(=O)CO1)[C@@H](c1ccc(NC2Cc3ccccc3C2(C)C)cn1)C(F)(F)F (single isomer, unassigned) [Example 134]	–	160	710
CN(C(=O)[C@@H]1CC(=O)N1)[C@@H](c1ccc(N[C@H]2Cc3ccccc3C2(C)C)cn1)C(F)(F)F [Example 165, (S)—N—((S)-1-(5-(((S)-1,1-Dimethyl-2,3-dihydro-1H-inden-2-yl)amino)pyridin-2-yl)-2,2,2-trifluoroethyl)-N-methyl-4-oxoazetidine-2-carboxamide]	450	87	–
CC(=O)N1CCC[C@H]1C(=O)N(C)[C@@H](c1ccc(N[C@H]2Cc3ccccc3C2(C)C)cn1)C(F)(F)F (single isomer, unassigned) [Example 194]	630	53	–
CN(C(=O)C1CC2(CCN2CCO)C1)[C@@H](c1ccc(NC2Cc3ccccc3C2(C)C)cn1)C(F)(F)F (single isomer, unassigned) [Example 249]	350	50	–
CN(C(=O)[C@H]1CNC(=O)C1)[C@@H](c1ccc(NC2Cc3ccc(Cl)c(F)c3C2)nc1)C(F)(F)F (single isomer, unassigned) [Example 339]	66	24	–
CN1CC(C(=O)N(C)[C@@H](c2ccc(N[C@H]3Cc4ccccc4C3(C)C)cn2)C(F)(F)F)CCC1=O (single isomer, unassigned) [Example 252]	590	71	–
CN(C(=O)[C@H]1CC[C@@H](NS(C)(=O)=O)C1)[C@@H](c1ccc(N[C@H]2Cc3ccccc3C2(C)C)cn1)C(F)(F)F [Example 221, (1S,3R)—N—((S)-1-(5-(((S)-1,1-Dimethyl-2,3-dihydro-1H-inden-2-yl)amino)pyridin-2-yl)-2,2,2-trifluoroethyl)-N-methyl-3-(methylsulfonamido)cyclopentane-1-carboxamide]	230	21	–
CN(C(=O)C1CCS(=O)(=O)CC1)[C@@H](c1ccc(NC2Cc3c(F)ccc(Cl)c3C2)cn1)C(F)(F)F (single isomer, unassigned) [Example 293]	460	55	–
CN1CCC(C(=O)N(C)[C@@H](c2ccc(N[C@H]3Cc4ccccc4C3(C)C)cn2)C(F)(F)F)CC1=O (single isomer, unassigned) [Example 250]	300	41	–
CN(C(=O)[C@@H]1CCC(=O)NC1)[C@@H](c1ccc(N[C@H]2Cc3ccccc3C2(C)C)nc1)C(F)(F)F [Example 218, (R)—N—((S)-1-(6-(((S)-1,1-dimethyl-2,3-dihydro-1H-inden-2-yl)amino)pyridin-3-yl)-2,2,2-trifluoroethyl)-N-methyl-6-oxopiperidine-3-carboxamide]	430	–	–
CC(=O)N1C[C@H](O)C[C@H]1C(=O)N(C)[C@@H](c1ccc(N[C@H]2Cc3ccccc3C2(C)C)cn1)C(F)(F)F [Example 183, (2S,4R)-1-Acetyl-N—((S)-1-(5-(((S)-1,1-dimethyl-2,3-dihydro-1H-inden-2-yl)amino)pyridin-2-yl)-2,2,2-trifluoroethyl)-4-hydroxy-N-methylpyrrolidine-2-carboxamide]	510	–	–
CC(=O)N1CCC(C(=O)N(C)[C@@H](c2ccc(N[C@H]3Cc4ccccc4C3(C)C)cn2)C(F)(F)F)CC1 [Example 224, 1-Acetyl-N—((S)-1-(5-(((S)-1,1-dimethyl-2,3-dihydro-1H-inden-2-yl)amino)pyridin-2-yl)-2,2,2-trifluoroethyl)-N-methylpiperidine-4-carboxamide]	200	–	–
CN(C(=O)[C@H]1CCC(=O)NC1)[C@@H](c1ccc(N[C@H]2Cc3ccccc3C2(C)C)nc1)C(F)(F)F [Example 219]	330	–	–
CN(C(=O)c1cc[nH]c(=O)c1)C(c1ccc(NC2Cc3ccccc3C2(C)C)nc1)C(F)(F)F (single isomer, unassigned) [Example 100, N-(1-(6-((1,1-Dimethyl-2,3-dihydro-1H-inden-2-yl)amino)pyridin-3-yl)-2,2,2-trifluoroethyl)-N-methyl-2-oxo-1,2-dihydropyridine-4-carboxamide]	–	–	850
CN(C(=O)[C@@H]1CNC(=O)C1)[C@@H](c1ccc(N[C@H]2Cc3ccc(Cl)cc3C2)cn1)C(F)(F)F [Example 300, (S)—N—((S)-1-(5-(((S)-5-Chloro-2,3-dihydro-1H-inden-2-yl)amino)pyridin-2-yl)-2,2,2-trifluoroethyl)-N-methyl-5-oxopyrrolidine-3-carboxamide]	350	–	–
CN(C(=O)N1CCC(C)(O)CC1)[C@@H](c1ccc(NC2Cc3ccccc3C2(C)C)cc1)C(F)(F)F (single isomer, unassigned) [Example 17]	–	–	2950
CC(=O)N[C@H]1C[C@H](C(=O)N(C)[C@@H](c2ccc(N[C@H]3Cc4ccccc4C3(C)C)cn2)C(F)(F)F)C1 [Example 186, (1,3-trans)-3-Acetamido-N—((S)-1-(5-(((S)-1,1-dimethyl-2,3-dihydro-1H-inden-2-yl)amino)pyridin-2-yl)-2,2,2-trifluoroethyl)-N-methylcyclobutane-1-carboxamide]	460	–	–
CNC(=O)[C@H]1C[C@@H](C(=O)N(C)[C@@H](c2ccc(N[C@H]3Cc4ccccc4C3(C)C)cn2)C(F)(F)F)C1 [Example 240, (1,3-cis)-N^1—((S)-1-(5-(((S)-1,1-Dimethyl-2,3-dihydro-1H-inden-2-yl)amino)pyridin-2-yl)-2,2,2-trifluoroethyl)-N^1,N^3-dimethylcyclobutane-1,3-dicarboxamide]	330	–	–
